Measured values published in PMC6355801, “The compound TB47 is highly bactericidal against Mycobacterium ulcerans in a Buruli ulcer mouse model” (Nature Communications, 2019).
In brackets after ≈: the same amount, converted by molar mass. Read-outs that look alike come from different tables or passages of the source.

Legend:
M. ulcerans = assay type: cell-based, Mycobacterium ulcerans
M. marinum = assay type: cell-based, Mycobacterium marinum
[1] = assay type: in vitro ADME, Human
From the text: (§1) Supplement 41467_2019_8464_MOESM1_ESM.docx, table 4: Table 2-3 Metabolic stability | column: T1/2 (min); Clint In Vitro (mL min^-1 gprot^-1); Clint In Vivo Extpl (mL min^-1); Clint Hep In Vivo Extpl (mL min^-1); Stability

Klebsiella pneumoniae = test: MIC, standard broth dilution assay (CLSI); assay type: cell-based; details: 3 clinical isolates
M. smegmatis = test: microbe, parasite or virus in culture; assay type: cell-based, Mycobacterium smegmatis
[2] = test system: most of the clinical strains; test: MIC, standard broth dilution assay (CLSI), summary for clinical strains; assay type: cell-based
[3] = test system: Mycobacterium bovis BCG Tice; assay type: cell-based; details: 1 strain
CYP 2C9 = CYP 2C9 (Homo sapiens, UniProt P11712); test: CYP inhibition; assay type: in vitro ADME
Chain of CYP 2C9 (P11712 whole entry): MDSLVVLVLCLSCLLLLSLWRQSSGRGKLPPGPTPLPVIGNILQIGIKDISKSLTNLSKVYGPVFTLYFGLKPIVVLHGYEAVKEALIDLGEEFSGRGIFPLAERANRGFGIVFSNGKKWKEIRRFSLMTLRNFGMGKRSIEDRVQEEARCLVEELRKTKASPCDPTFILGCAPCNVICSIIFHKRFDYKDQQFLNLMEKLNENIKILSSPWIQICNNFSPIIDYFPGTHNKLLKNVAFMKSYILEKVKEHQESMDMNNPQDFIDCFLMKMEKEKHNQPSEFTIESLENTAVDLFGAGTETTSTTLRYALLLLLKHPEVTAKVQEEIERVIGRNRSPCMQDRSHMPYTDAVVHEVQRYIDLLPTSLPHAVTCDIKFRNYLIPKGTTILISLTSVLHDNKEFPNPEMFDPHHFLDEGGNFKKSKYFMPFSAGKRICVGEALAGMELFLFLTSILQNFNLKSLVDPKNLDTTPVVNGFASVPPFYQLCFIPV

[4] = assay type: in vitro ADME, Rat
From the text: as §1

CYP 3A4 = CYP 3A4 (Homo sapiens, UniProt P08684); details: read-out: CYP Inhibition (IC50)
Chain of CYP 3A4 (P08684 whole entry): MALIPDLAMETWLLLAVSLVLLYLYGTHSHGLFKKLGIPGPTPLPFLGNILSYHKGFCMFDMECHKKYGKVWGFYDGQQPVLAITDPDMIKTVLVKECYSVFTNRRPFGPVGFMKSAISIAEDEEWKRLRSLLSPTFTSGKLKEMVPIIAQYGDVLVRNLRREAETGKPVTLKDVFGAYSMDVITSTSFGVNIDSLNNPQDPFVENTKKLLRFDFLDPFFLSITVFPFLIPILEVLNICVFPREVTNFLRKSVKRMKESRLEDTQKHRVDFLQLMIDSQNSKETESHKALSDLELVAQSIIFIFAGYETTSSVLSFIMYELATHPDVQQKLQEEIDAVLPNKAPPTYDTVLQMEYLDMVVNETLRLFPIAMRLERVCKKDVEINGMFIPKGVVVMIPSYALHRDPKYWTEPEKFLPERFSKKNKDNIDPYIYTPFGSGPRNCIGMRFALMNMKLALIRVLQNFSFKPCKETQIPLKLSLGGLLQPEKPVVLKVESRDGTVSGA

THP-1 cell = test: Cytotoxicity; assay type: cell-based
[5] = Long-term administration study in rats; assay type: in vivo; details: 10, 30, or 100 mg kg^−1 orally daily for 30 days, male and female rats
[6] = assay type: in vitro ADME, Mouse
From the text: as §1

[7] = design: species or system BALB/c mice; details: mouse, in vivo
Method: BALB/c mice were given 2 mg kg^−1 TB47 intravenously or 10 mg kg^−1 orally. […] Footpads and lung tissues were collected at 6, 12, 24, and 48 h post-dose for oral group. After extraction and centrifuge at 4 °C, TB47 concentrations were determined by Liquid Chromatograph-Mass Spectrometer (LC-MS).

Candida albicans = test: MIC, standard broth dilution assay (CLSI); assay type: cell-based; details: 2 clinical isolates
Salmonella enteriditis = test: MIC, standard broth dilution assay (CLSI); assay type: cell-based; details: 1 clinical isolate
[8] = assay type: in vitro ADME, Monkey
From the text: as §1

Escherichia coli = test: MIC, standard broth dilution assay (CLSI); assay type: cell-based; details: 5 clinical isolates
CYP 2C19 = CYP 2C19 (Homo sapiens, UniProt P33261); assay type: in vitro ADME; details: read-out: CYP Inhibition (IC50)
Chain of CYP 2C19 (P33261 whole entry): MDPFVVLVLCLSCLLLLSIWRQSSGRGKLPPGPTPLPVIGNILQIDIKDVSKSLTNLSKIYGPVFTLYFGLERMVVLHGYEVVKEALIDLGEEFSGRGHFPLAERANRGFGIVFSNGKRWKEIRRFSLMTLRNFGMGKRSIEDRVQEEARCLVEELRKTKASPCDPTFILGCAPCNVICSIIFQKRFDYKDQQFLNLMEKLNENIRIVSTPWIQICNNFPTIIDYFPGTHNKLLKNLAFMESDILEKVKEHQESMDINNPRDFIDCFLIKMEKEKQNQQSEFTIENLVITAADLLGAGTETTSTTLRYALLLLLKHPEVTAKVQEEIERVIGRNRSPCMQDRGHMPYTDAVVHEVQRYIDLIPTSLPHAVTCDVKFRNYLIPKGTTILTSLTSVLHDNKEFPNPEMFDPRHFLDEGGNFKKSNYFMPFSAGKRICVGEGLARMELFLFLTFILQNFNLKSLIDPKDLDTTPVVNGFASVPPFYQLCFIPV

[9] = Oral tolerability in mice; assay type: in vivo
Pseudomonas aeruginosa = test: MIC, standard broth dilution assay (CLSI); assay type: cell-based; details: 3 clinical isolates
[10] = assay type: in vitro ADME, Dog
From the text: as §1

Staphylococcus aureus = test: MIC, standard broth dilution assay (CLSI); assay type: cell-based; details: 1 clinical isolate
Acinetobacter baumannii = test: MIC, standard broth dilution assay (CLSI); assay type: cell-based; details: 3 clinical isolates
Enterococcus faecium = test: MIC, standard broth dilution assay (CLSI); assay type: cell-based; details: 1 clinical isolate
M. ulcerans (AlMu) = test: Time kill assay and CFU-based MBC in liquid culture; assay type: cell-based, Mycobacterium ulcerans
Method: Serial dilutions of drug-containing solutions and autoluminescent mycobacteria broth culture (OD600 of 0.3 to 1.0) were prepared. RLU counts from the same batch of triplicate samples were measured according to the designed time points. Ninety-six-well plates were measured as rendering the amount of light by using a Veritas™ Microplate Luminometer Operating Manual (Turner BioSystems). MIClux was determined as the lowest concentration that can inhibit > 90% RLUs compared with that from the untreated controls[6],[18]. The time-killing curves and MIClux of autoluminescent strains were determined by detecting RLUs from these samples. For M. ulcerans and M. marinum strains, the incubation time for MIClux reading was 7 days and 3 days, respectively. The minimum bactericidal concentration (MBC) was defined as the lowest concentration of drug that killed ≥ 99% of the CFU compared with the CFU count of the initial inoculum used for the liquid activity assays, which was adopted from reference. […] The concentrations used were twofold series of dilutions for this purpose. The incubation time for RLU reading was 14 days for the MBD experiment and the light from each 1.5 mL tube containing total 500 μL culture was detected using Promega GloMax 20/20n. […] The concentrations used were fivefold series of dilutions for this purpose. Each above experiment was performed in triplicate (three independent experiments) or more by independent persons and from three or more independent cultures. The representative results are shown.

hERG = hERG (Homo sapiens, UniProt Q12809); test: hERG inhibition; assay type: biochemical
Chain of hERG (Q12809 whole entry): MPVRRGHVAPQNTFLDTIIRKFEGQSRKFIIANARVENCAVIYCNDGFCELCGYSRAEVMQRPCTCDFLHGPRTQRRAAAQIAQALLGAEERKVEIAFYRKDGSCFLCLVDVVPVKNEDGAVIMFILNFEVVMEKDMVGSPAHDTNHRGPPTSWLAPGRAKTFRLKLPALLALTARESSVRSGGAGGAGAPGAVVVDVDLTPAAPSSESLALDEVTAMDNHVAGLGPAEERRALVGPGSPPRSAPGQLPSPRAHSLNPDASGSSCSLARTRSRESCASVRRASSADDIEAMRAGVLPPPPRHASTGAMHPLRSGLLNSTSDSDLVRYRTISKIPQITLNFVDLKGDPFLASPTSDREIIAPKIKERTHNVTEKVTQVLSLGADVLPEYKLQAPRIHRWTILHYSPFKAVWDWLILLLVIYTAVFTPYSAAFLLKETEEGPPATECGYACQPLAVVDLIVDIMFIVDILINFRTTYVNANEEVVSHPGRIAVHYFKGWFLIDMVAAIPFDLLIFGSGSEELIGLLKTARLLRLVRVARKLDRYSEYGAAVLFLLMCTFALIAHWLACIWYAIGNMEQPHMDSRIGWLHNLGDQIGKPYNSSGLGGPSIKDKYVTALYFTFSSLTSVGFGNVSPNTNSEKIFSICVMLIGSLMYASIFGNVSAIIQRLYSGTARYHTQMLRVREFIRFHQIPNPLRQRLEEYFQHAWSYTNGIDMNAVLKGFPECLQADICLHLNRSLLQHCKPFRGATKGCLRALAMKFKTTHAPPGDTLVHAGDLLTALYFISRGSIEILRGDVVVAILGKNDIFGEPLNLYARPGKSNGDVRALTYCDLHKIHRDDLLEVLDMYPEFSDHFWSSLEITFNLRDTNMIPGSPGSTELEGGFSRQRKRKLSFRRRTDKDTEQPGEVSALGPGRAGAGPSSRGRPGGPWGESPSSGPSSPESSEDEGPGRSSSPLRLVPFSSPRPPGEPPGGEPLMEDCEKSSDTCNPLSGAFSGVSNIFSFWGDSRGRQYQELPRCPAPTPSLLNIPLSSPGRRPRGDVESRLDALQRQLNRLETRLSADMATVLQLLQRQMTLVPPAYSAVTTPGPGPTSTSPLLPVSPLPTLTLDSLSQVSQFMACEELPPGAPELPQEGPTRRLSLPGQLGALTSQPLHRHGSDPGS

[11] = test system: M. ulcerans strains 1059 and 1615; test: MIC on 7H11 agar plates; assay type: cell-based; details: Mycobacterium ulcerans, 2 strains (1059 and 1615)
[12] = not told
CYP 1A2 = CYP 1A2 (Homo sapiens, UniProt P05177); test: CYP inhibition; assay type: in vitro ADME
Chain of CYP 1A2 (P05177 whole entry): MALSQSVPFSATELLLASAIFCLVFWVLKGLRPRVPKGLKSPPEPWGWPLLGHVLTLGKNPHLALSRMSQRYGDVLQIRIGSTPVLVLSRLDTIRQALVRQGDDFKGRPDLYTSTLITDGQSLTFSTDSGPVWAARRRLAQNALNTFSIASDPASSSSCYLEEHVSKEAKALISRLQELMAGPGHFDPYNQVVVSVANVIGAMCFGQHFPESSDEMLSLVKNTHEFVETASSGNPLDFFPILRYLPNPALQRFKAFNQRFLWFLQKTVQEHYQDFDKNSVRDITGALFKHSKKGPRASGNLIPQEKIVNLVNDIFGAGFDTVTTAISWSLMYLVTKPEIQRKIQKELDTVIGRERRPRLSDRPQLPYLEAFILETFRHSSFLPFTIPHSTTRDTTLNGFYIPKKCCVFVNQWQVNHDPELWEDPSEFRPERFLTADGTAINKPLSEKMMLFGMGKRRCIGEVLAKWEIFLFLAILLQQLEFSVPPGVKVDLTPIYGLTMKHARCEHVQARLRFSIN

Mycobacterium abscessus = test: MIC, standard broth dilution assay (CLSI); assay type: cell-based; details: 20 clinical isolates
Enterococcus faecalis = test: MIC, standard broth dilution assay (CLSI); assay type: cell-based; details: 1 clinical isolate
CYP 2D6 = CYP 2D6 (Homo sapiens, UniProt P10635); assay type: in vitro ADME; details: read-out: CYP Inhibition (IC50)
Chain of CYP 2D6 (P10635 whole entry): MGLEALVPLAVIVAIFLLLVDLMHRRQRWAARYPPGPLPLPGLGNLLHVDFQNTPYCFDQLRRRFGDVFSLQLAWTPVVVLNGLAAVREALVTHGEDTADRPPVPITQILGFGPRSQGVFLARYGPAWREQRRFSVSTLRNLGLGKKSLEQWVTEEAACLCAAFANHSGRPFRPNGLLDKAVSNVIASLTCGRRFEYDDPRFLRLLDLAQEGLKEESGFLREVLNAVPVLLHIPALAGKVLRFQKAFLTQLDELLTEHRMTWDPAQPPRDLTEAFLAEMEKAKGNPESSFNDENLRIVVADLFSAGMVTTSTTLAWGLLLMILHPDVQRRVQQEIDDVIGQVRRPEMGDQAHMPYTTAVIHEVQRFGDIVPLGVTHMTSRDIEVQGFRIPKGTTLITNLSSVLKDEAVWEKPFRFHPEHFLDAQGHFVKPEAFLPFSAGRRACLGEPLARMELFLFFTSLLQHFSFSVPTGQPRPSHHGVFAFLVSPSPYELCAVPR

CO[C@H]1/C=C/O[C@@]2(C)Oc3c(C)c(O)c4c(O)c(c(/C=N/N5CCN(C)CC5)c(O)c4c3C2=O)NC(=O)/C(C)=C\C=C\[C@H](C)[C@H](O)[C@@H](C)[C@@H](O)[C@@H](C)[C@H](OC(C)=O)[C@@H]1C [RIF, rifampin]
MIClux (M. ulcerans; M. ulcerans Wild-type (AlMu 1059)): 0.06 to 0.25 µg/mL | MIClux (M. ulcerans; M. ulcerans Wild-type:: qcrB^WT, over-expression of wild-type qcrB): 0.06 to 0.25 µg/mL | MIClux (M. ulcerans; M. ulcerans Wild-type:: vector (empty plasmid)): 0.06 to 0.25 µg/mL | MIClux (M. marinum; M. marinum Wild-type (Autoluminescent strain)): 0.25 to 1.0 µg/mL | MIClux (M. marinum; M. marinum Wild-type:: qcrB^WT, over-expression of wild-type qcrB): 0.25 to 1.0 µg/mL | MIClux (M. marinum; M. marinum Wild-type:: vector (empty plasmid)): 0.25 to 1.0 µg/mL

COc1ccn2nc(C)c(C(=O)NCc3ccc(N4CCC(c5ccc(OC(F)(F)F)cc5)CC4)cc3)c2c1 [TB47]
Stability [1]: High | Clint Hep In Vivo Extpl ([1]; human): 0.0 mL/min | Clint In Vitro ([1]; human): 0.0 mL min^-1 gprot^-1 | Clint In Vivo Extpl ([1]; human): 0.0 mL/min | T1/2 ([1]; human): Stable | MIC (Klebsiella pneumoniae): >128 µg/mL | MIC (M. smegmatis; Mycobacterium smegmatis, 1 strain): 50 µg/mL (≈ 92.8 µM) | MICs [2]: > 128 µg/mL | MIC [3]: 3 ng/mL (≈ 0.00557 µM) | IC50 (CYP 2C9): > 10 µM | Stability [4]: High | Clint Hep In Vivo Extpl ([4]; rat): 5.4 mL/min | Clint In Vitro ([4]; rat): 16.5 mL min^-1 gprot^-1 | Clint In Vivo Extpl ([4]; rat): 7.4 mL/min | T1/2 ([4]; rat): 128 min | IC50 (CYP 3A4; 3A4-Midazolam): > 10 µM | IC50 (CYP 3A4; 3A4-Testerone): > 10 µM | IC50 (THP-1 cell): 50 µM | tolerability [5]: well tolerated without any meaningful clinical signs of toxicity | Stability [6]: High | Clint Hep In Vivo Extpl ([6]; mouse): 0.8 mL/min | Clint In Vitro ([6]; mouse): 16.5 mL min^-1 gprot^-1 | Clint In Vivo Extpl ([6]; mouse): 1.1 mL/min | T1/2 ([6]; mouse): 127 min | bioavailability [7]: 38.1% | MRT(0-t) ([7]; iv, 2 mg/kg): 14.7 h | MRT(0-∞) ([7]; iv, 2 mg/kg): 22.3 h | t 1/2z ([7]; iv, 2 mg/kg): 17.7 h | MRT(0-t) ([7]; po, 10 mg/kg): 20.2 h | MRT(0-∞) ([7]; po, 10 mg/kg): 52.0 h | t 1/2z ([7]; po, 10 mg/kg): 35.6 h | MIC (Candida albicans): >128 µg/mL | MIC (Salmonella enteriditis): >128 µg/mL | Stability [8]: High | Clint Hep In Vivo Extpl ([8]; monkey): 0.1 mL/min | Clint In Vitro ([8]; monkey): 0.0 mL min^-1 gprot^-1 | Clint In Vivo Extpl ([8]; monkey): 0.1 mL/min | T1/2 ([8]; monkey): 64.793 days | MIC (Escherichia coli): >128 µg/mL | IC50 (CYP 2C19): > 10 µM | tolerability ([9]; oral 200 mg kg^−1 daily for 4 weeks, mice): well tolerated | tolerability ([9]; single oral administration of 2000 mg kg^−1, mice): well tolerated | MIC (Pseudomonas aeruginosa): >128 µg/mL | IC50 (VERO cell): > 100 µM | Stability [10]: High | Clint Hep In Vivo Extpl ([10]; dog): 17.1 mL/min | Clint In Vitro ([10]; dog): 3.5 mL min^-1 gprot^-1 | Clint In Vivo Extpl ([10]; dog): 19.0 mL/min | T1/2 ([10]; dog): 598 min | MIC (M. marinum; Mycobacterium marinum, 1 strain): 1 to 8 ng/mL | MIC (Staphylococcus aureus): >128 µg/mL | MIC (Acinetobacter baumannii): >128 µg/mL | MIC (Enterococcus faecium): >128 µg/mL | bactericidal activity compared with 0.2 µg mL^−1 rifampin (M. ulcerans (AlMu); TB47 at 0.008 µg mL^−1 or higher, time kill assay): more potent | minimum bactericidal concentration (MBC) (M. ulcerans (AlMu); killed ≥ 99% of CFU of the initial inoculum): 6.4 ng/mL (≈ 0.0119 µM) | concentration demonstrating bactericidal activity (M. ulcerans (AlMu); standard time kill assay, AlMu in liquid culture): ≥ 0.0016 µg/mL | IC50 (hERG): > 30 µM | MIC [11]: 1.6 ng/mL (≈ 0.00297 µM) | Conclusion: P-gp substrate [12]: Not P-gp substrate | Conclusion: permeability [12]: High permeability | Efflux Ratio [12]: 1.07 | IC50 (CYP 1A2): > 10 µM | MIC (Mycobacterium abscessus): >128 µg/mL | MIC (Enterococcus faecalis): >128 µg/mL | IC50 (CYP 2D6): > 10 µM

NNC(=O)c1ccncc1 [isoniazid]
MIC (M. smegmatis; MsmΔcydAB): 4 µg/mL (≈ 29.2 µM) | MIC (M. smegmatis; MsmΔcydAB::cydAB^Mtb): 4 µg/mL (≈ 29.2 µM) | MIC (M. smegmatis; MsmΔcydAB::cydAB^Mu): 4 µg/mL (≈ 29.2 µM) | MIC (M. smegmatis; Mycolicibacterium smegmatis): 4 µg/mL (≈ 29.2 µM)
